From US9994566B2, “Compound of 5-hydroxyl-1,7-naphthyridine substituted by aryl or heteroaryl, preparation method thereof and pharmaceutical use thereof” (SHENYANG SUNSHINE PHARMACEUTICAL CO. LTD., priority 2015, dated 2018)
pIC50: −log10 of the molar value. Values joined by “and” are separate entries in the source; they are usually repeats but may differ in a detail not shown here. Identical values can stand only once.

Legend:
hepatoma cells Hep3B = assay: Promotion of erythropoietin (EPO) expression in hepatoma cells Hep3B in vitro (ELISA); assay type: cell-based, Human; settings: Hep3B supernatant, 24 hours, test doses 100 μmol/L and 10 μmol/L (dose of the tabulated value not given)
Source text: Biological Example 1: Development and Screening of In Vitro Detection Methods: Promotion of Erythropoietin Expression in Hepatoma Cells Hep3B In Vitro by HIF-PHD2 Inhibitor Compounds
The complete medium for culture of Experimental hepatoma cells Hep3B (China Center for Type Culture Collection, CCTCC) was MEM (Cat# GNM 41500, GIBCO, provided by Hangzhou Genom Biopharmaceutical Technology Co., Ltd) supplemented with 10% serum FBS (Cat#10099-141, GIBCO) and 1% P/S (Cat#GNM15140, provided by Hangzhou Genom Biopharmaceutical Technology Co., Ltd). Cells were cultured in a 37° C., 5% CO2 incubator. Experimental reagents included dimethyl sulfoxide (for molecular biology, >=99.9%, Catalog # D8418) purchased from Sigma. The ELISA kit was purchased from Quantikine IVD ELISA, Human Erythropoietin (R&D, DEP00). The test control AKB-6548 was prepared by the inventors or obtained by commercial purchase. The test substance was stored at −20° C. in the dark.
The test substance and the positive control substance were fully dissolved in sterile water or dimethylsulfoxide under dark conditions and prepared into a stock solution at a concentration of 10^−1 mol/L or 10^−2 mol/L. Each of the stock solutions was stored at −20° C. MEM medium containing 0.5% FBS was used as a diluent to dilute the stock solution of the test substance, to prepare a diluted test substance at a concentration of 100 μmol/L and 10 μmol/L. To a 96-well culture plate was added 200 μl/well (1.5 or 2.0×10^4 cells/well) of hepatoma cells Hep3B complete medium suspension and incubated overnight at 37° C. in a 5% CO2 incubator. The solution in the 96-well culture plate was removed and the cells were washed once with the MEM medium containing 0.5% FBS. 200 μl/well of the test substance was added in the dark, at a dose of 100 μmol/L and 10 μmol/L, and each dose set 2 wells, a test well and a spare well. A cell control well was prepared by replacing the test solution with the diluent (without test substance and solvent). A solvent control well was prepared by replacing the test solution with the diluent containing the corresponding concentration of solvent (dimethylsulfoxide) (without test substance). They were cultured in a 5% CO2 incubator at 37° C. for 24 hours. The supernatant was absorbed as a sample and cryopreserved at −20° C. for use. 100 μl/well of stop solution was added. OD value was detected by microplate reader A450 nm-A600 nm. The expression level of EPO (mIU/mL) promoted by the test substance was obtained according to the standard curve.

male Balb/c mice = assay: Effect on increasing erythrocyte of normal mice: reticulocyte (RETIC) count; assay type: in vivo; settings: four hours after the last administration; for RETIC, individual mice (Mice No. 1-8): one value per mouse; for RETIC, Average: orbital blood
Procedure: Biological Example 3: Effect of the Compounds of the Present Invention on Increasing Erythrocyte of Normal Mice
80 male Balb/c mice were divided into 11 groups, with 8 animals for each drug group, 10 animals for blank control group. Drug group: AKB-6548, 100 mg/kg, oral administration, once a day×3; FG-4592, 25 mg/kg, oral administration, once a day×3; EPO, 100 IU/kg, Day 1 and Day 3, subcutaneous injection, as positive control groups. Each of the compounds of the present invention was orally administrated at 25 mg/kg, once a day×3. Four hours after the last administration, orbital blood of all animals were collected and treated with EDTA-K2 anticoagulant, and reticulocytes (RETIC) were counted with a blood cell automated analyzer.

[1] = target: HIF Prolyl hydroxylases 2 (PHD2) (Homo sapiens, UniProt Q9GZT9); assay: PHD2 inhibition, fluorescence polarization (FP) detection of HIF-1α / VBC complex interaction; assay type: biochemical; settings: PHD2 0.5 μg/μl, FAM-HIF (556-575) 1 μM, 30 minutes room temperature
Procedure: The interaction between hypoxia-inducible factor HIF-1α and VBC complex (von Hippel-Lindau protein-Elongin B-Elongin C, VBC) was detected by Fluorescence polarization (FP) method, to measure the enzyme inhibitory activity of the HIF Prolyl hydroxylases 2 (PHD2) inhibitor compounds.
Subsequently, the desired concentration of the test compound or the positive compound was added (the compound was replaced by the buffer in the negative control and the positive control). Finally, PHD2 was added at a final concentration of 0.5 μg/μl (PHD2 was replaced by the buffer in the negative control). They were mixed well and allowed to stand at room temperature for 30 minutes in the dark followed by 95° C. water bath for 1 minute, and then the reaction was terminated. After the temperature drops to room temperature, the sample was prepared well for use. EBC buffer (50 mM Tris.HCl, 120 mM NaCl, 0.5% NP-40) was added to the corresponding wells of a black 96-well test plate. A GST-VBC complex was added to the corresponding test wells at a final concentration of 300 nM (using the wells containing only EBC buffer as blank wells). Subsequently, the corresponding PHD2 prolyl hydroxylation reaction sample was added in the dark as a substrate with a final concentration of 100 nM. After mixing well, the lateral and longitudinal fluorescence intensity values were measured using a full-wavelength multifunctional microplate reader (TECAN infinite M1000) at an excitation wavelength of […] and an emission wavelength of 518 nm.
The fluorescence polarization (mP) was calculated: mP=1000×(lateral value−G factor×longitudinal value)/(lateral value+G factor×longitudinal value) wherein, lateral value=lateral fluorescence intensity value of test well−lateral fluorescence intensity value of blank well, longitudinal value=longitudinal fluorescence intensity value of test well−longitudinal fluorescence intensity value of blank well, […]
The IC50 was calculated using the non-linear regression data analysis method of Graphpad Prism 4.0 software ([…]).

[2] = 100 IU/kg, subcutaneous injection, Day 1 and Day 3

HIF Prolyl hydroxylases 2 (PHD2), sequence (Q9GZT9 whole entry, species assumed): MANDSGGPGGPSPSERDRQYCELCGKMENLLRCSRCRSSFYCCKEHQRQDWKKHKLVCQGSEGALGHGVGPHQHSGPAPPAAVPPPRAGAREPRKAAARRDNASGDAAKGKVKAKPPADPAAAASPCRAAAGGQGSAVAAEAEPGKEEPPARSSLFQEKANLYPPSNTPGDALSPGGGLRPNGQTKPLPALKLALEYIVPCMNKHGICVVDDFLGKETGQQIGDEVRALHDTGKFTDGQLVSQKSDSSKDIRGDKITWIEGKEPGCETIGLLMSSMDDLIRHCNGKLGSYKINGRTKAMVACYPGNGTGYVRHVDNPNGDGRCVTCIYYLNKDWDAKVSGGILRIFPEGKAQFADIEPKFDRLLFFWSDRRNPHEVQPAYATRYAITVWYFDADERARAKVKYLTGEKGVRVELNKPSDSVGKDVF

| Molecule | pIC50 [1] | EPO level of the test substance (hepatoma cells Hep3B) [mIU/mL] | further results |
| --- | --- | --- | --- |
| N#Cc1ccc(-c2cnc(C(=O)NCC(=O)O)c(O)c2)cc1 [AKB-6548, reference compound] | – | 0.13 | RETIC, individual mice (Mice No. 1-8) (male Balb/c mice; 100 mg/kg, oral, once a day × 3, listed as AKB-6548-A): 5.3 (2×) and 6.1 and 4 (2×) and 4.2 (2×) and 4.9; RETIC, Average (male Balb/c mice; 100 mg/kg, oral, once a day × 3): 4.75 |
| COc1cccc(-c2ccc3c(O)c(C(=O)NCC(=O)O)nc(C)c3n2)c1 [Compound 4, 2-{5-hydroxy-[2-(3-methoxy)-phenyl]-8-methyl-[1,7]-napthyridine-6-formamido} acetic acid] | 5.16 | 1.512 | – |
| Cc1nc(C(=O)NCC(=O)O)c(O)c2ccc(-c3cccnc3)nc12 [Compound 5, 2-{5-hydroxy-8-methyl-[2-(3-pyridyl)]-[1,7]-naphthyridine-6-formamido} acetic acid] | 5.77 | 1.89 | – |
| O=C(O)CNC(=O)c1ncc2nc(-c3ccc(Cl)cc3)ccc2c1O [Compound 8] | 4.37 | 0.68 | – |
| COc1ccc(-c2ccc3c(O)c(C(=O)NCC(=O)O)nc(C)c3n2)cc1 [Compound 10, 2-{5-hydroxy-8-methyl-[2-(4-methoxy)-phenyl]-[1,7]-naphthyridine-6-formamido} acetic acid] | 4.20 | 0.64 | – |
| O=C(O)CNC(=O)c1ncc2nc(-c3cccc4ccccc34)ccc2c1O [Compound 14, [(5-hydroxy-2-(naphthalene-1-yl)-[1,7]naphthyridine-6-carbonyl)-amino]-acetic acid] | 5.00 | 5.435 | RETIC, individual mice (Mice No. 1-8) (male Balb/c mice; 25 mg/kg, oral, once a day × 3): 4 (3×) and 3.8 and 4.1 and 5.8 and 3.4 and 4.3; RETIC, Average (male Balb/c mice; 25 mg/kg, oral, once a day × 3): 4.18 |
| CC(C)(C)c1ccc(-c2ccc3c(O)c(C(=O)NCC(=O)O)ncc3n2)cc1 [Compound 16] | 4.32 | 7.046 | – |
| O=C(O)CNC(=O)c1ncc2nc(-c3cccs3)ccc2c1O [Compound 18] | 5.24 | 8.888 | – |
| Cc1nc(C(=O)NCC(=O)O)c(O)c2ccc(Oc3ccccc3)cc12 [FG-4592, reference compound] | – | 0.378 | RETIC, individual mice (Mice No. 1-8) (male Balb/c mice; 25 mg/kg, oral, once a day × 3, listed as FG-4592-A): 3.6 and 3.8 (2×) and 4 (2×) and 3.5 and 4.4 and 3.4; RETIC, Average (male Balb/c mice; 25 mg/kg, oral, once a day × 3): 3.73 |
| EPO: erythropoietin, glycoprotein hormone; positive control given by subcutaneous injection | – | – | RETIC, individual mice (Mice No. 1-8) (male Balb/c mice; [2]): 5 and 5.9 and 2.5 and 2.2 (2×) and 2.6 and 4.3 and 5.1; RETIC, Average (male Balb/c mice; [2]): 3.73 |

Continued, in another order:

| pIC50 [1] | Molecule | EPO level of the test substance (hepatoma cells Hep3B) [mIU/mL] | further results |
| --- | --- | --- | --- |
| 4.74 | O=C(O)CNC(=O)c1ncc2nc(-c3ccccc3)ccc2c1O [Compound 1] | 0.71 | – |
| 4.96 | COc1ccc(-c2ccc3c(O)c(C(=O)NCC(=O)O)ncc3n2)cc1 [Compound 2, 2-{5-hydroxy-[2-(4-methoxy)-phenyl]-[1,7]-naphthyridine-6-formamido} acetic acid] | 0.64 | – |
| 4.07 | Cc1nc(C(=O)NCC(=O)O)c(O)c2ccc(-c3ccc(Cl)cc3)nc12 [Compound 3, 2-{5-hydroxy-[2-(4-chloro)-phenyl]-8-methyl-[1,7]-naphthyridine-6-formamido} acetic acid] | 0.52 | – |
| 6.39 | O=C(O)CNC(=O)c1ncc2nc(-c3cccc(Cl)c3)ccc2c1O [Compound 6, 2-{5-hydroxy-[2-(3-chloro)-phenyl]-[1,7]-naphthyridine-6-formamido} acetic acid] | 2.268 | RETIC, individual mice (Mice No. 1-8) (male Balb/c mice; 25 mg/kg, oral, once a day × 3): 5.2 (2×) and 4.8 and 6.3 and 4.7 and 6.4 and 3.9 and 5.4; RETIC, Average (male Balb/c mice; 25 mg/kg, oral, once a day × 3): 5.24 |
| 4.41 | Cc1nc(C(=O)NCC(=O)O)c(O)c2ccc(-c3ccc(C(C)(C)C)cc3)nc12 [Compound 11, 2-{5-hydroxy-8-methyl-[2-(4-tert-butyl)-phenyl]-[1,7]-naphthyridine-6-formamido} acetic acid] | 4.158 | – |
| 5.39 | Cc1nc(C(=O)NCC(=O)O)c(O)c2ccc(-c3cccc(Br)c3)nc12 [Compound 12, 2-{5-hydroxy-[2-(3-bromo)-phenyl]-8-methyl-[1,7]-naphthyridine-6-formamido} acetic acid] | 4.536 | – |
| 6.39 | O=C(O)CNC(=O)c1ncc2nc(-c3cccc(Br)c3)ccc2c1O [Compound 13, 2-{5-hydroxy-2-(3-bromophenyl)-[1,7]-naphthyridine-6-formamido} acetic acid] | 0.832 | – |
| 4.70 | O=C(O)CNC(=O)c1ncc2nc(-c3ccc(Br)cc3)ccc2c1O [Compound 17, 2-{5-hydroxy-[2-(4-bromo)-phenyl)-[1,7]-naphthyridine-6-formamido} acetic acid] | 7.757 | – |
| 5.12 | O=C(O)CNC(=O)c1ncc2nc(-c3ccc4ccccc4c3)ccc2c1O [Compound 19, [(5-hydroxy-2-(naphthalen-2-yl)-[1,7]naphthyridine-6-carbonyl)-amino]-acetic acid] | 9.786 | – |
| 6.09 | O=C(O)CNC(=O)c1ncc2nc(-c3cccc(F)c3)ccc2c1O [Compound 20, 2-{5-hydroxy-[2-(3-fluoro)-phenyl]-[1,7]-naphthyridine-6-formamido} acetic acid] | 10.685 | – |
| 4.85 | Cc1nc(C(=O)NCC(=O)O)c(O)c2ccc(-c3cccc([N+](=O)[O-])c3)nc12 [Compound 21, 2-{5-hydroxy-[2-(3-nitro)-phenyl]-8-methyl-[1,7]-naphthyridine-6-formamido} acetic acid] | 0.325 | – |
| 5.03 | Cc1nc(C(=O)NCC(=O)O)c(O)c2ccc(-c3ccc(C#N)cc3)nc12 [Compound 22, 2-{5-hydroxy-[2-(4-cyano)-phenyl]-8-methyl-[1,7]-naphthyridine-6-formamido} acetic acid] | 0.53 | – |
